Experimental data from BindingDB's records for doi:10.1074/jbc.M600168200 (Duke University Medical Center, 2006).

What was measured:
[1] = target: Protein farnesyltransferase subunit beta/geranylgeranyltransferase type-1 subunit alpha (Homo sapiens, UniProt P49354+P49356); test: In Vitro FTase/GGTase-1 Inhibition Assay; details: pH 7.7; 30 °C
Procedure: (§1) Compounds were tested as inhibitors of FTase or GGTase-1 in vitro using purified recombinant mammalian enzymes to catalyze the reactions between [3H] FPP or [3H]GGPP, and recombinant protein substrates. Incorporation of radiolabeled isoprenoid into Ras protein substrate was quantitated by precipitation of total protein with acid and scintillation counting. The inhibitory activity of the compounds is reported as an IC50 value, the concentration of inhibitor required to reduce radiolabel incorporation by 50% compared with an uninhibited control experiment.

[2] = target: Geranylgeranyl transferase type-1 subunit beta [A2V]/Protein farnesyltransferase/geranylgeranyltransferase type-1 subunit alpha (Homo sapiens, UniProt P49354+P53609, A2V); test: In Vitro FTase/GGTase-1 Inhibition Assay; details: pH 7.7; 30 °C
Procedure: as §1

Geranylgeranyl transferase type-1 subunit beta [A2V]/Protein farnesyltransferase/geranylgeranyltransferase type-1 subunit alpha, sequence (P53609 whole entry A2V, other chains not shown): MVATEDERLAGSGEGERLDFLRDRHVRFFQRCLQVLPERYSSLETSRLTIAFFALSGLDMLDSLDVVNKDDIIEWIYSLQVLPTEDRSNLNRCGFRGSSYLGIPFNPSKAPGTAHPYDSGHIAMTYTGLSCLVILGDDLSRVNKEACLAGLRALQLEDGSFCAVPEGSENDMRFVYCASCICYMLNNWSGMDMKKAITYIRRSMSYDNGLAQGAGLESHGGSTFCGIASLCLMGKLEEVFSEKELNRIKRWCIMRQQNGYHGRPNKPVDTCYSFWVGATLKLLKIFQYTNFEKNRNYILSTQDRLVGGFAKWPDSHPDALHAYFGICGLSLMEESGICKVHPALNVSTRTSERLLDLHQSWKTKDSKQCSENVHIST

## CSCCc1c(-c2cccnc2)nn(-c2ccc(Cl)c(Cl)c2)c1OCCCC(=O)N[C@@H](Cc1ccccc1)C(N)=O [N-[(S)-1-carbamoyl-2-phenylethyl]-4-[2-(3,4-di-chlorophenyl)-4-(2-methylsulfanylethyl)-5-pyridin-3-yl-2-H-pyrazol-3-yloxy]butyramide]
[1]
  IC50: > 2000 nM
[2]
  IC50: 8.24 nM
